Assay results reported in ChEMBL document CHEMBL1151217, “New cytotoxic terpenoids from the wood of Vepris punctata from the Madagascar Rainforest” (J Nat Prod, 2004).
Converted amounts (≈) assume the structure as drawn.

Test system: A2780
Experiment: Cytotoxicity against human A2780 cells
Assay type: functional, cell-based

CC(C)=C1C/C=C(\C)CC/C=C(\C)CC1
IC50: 6.4 µg/mL (≈ 31.3 µM)

C[C@H]1[C@H](C)CC[C@]2(C)CC[C@]3(C)C(=CC[C@@H]4[C@@]5(C)CC[C@H](O)C(C)(C)[C@@H]5CC[C@]43C)[C@H]12
IC50: 20.6 µg/mL (≈ 48.3 µM)

CC1(C)CC[C@]2(C)CC=C3[C@]4(C)CC[C@H]5C(C)(C)[C@H](O)CC[C@]5(C)[C@H]4CC[C@@]3(C)[C@@H]2C1
IC50: 24.4 µg/mL (≈ 57.2 µM)

CC(=O)O[C@H]1O[C@H]2C[C@@]13CC=C1[C@]4(C)[C@@H]5O[C@@H]5[C@H]5C(C)(C)[C@H](O)CC[C@]5(C)[C@H]4CC[C@@]1(C)[C@@H]3CC2(C)C
IC50: 21.5 µg/mL (≈ 41.9 µM)

CC1=C2C[C@H]3O[C@]3(C)CC[C@H]3O[C@@]3(C)C[C@@H]2OC1=O
IC50: 3.8 µg/mL (≈ 14.4 µM)

CC1=C2C/C=C(\C)CC/C=C(\C)C[C@@H]2OC1=O [GLECHOMANOLIDE]
IC50: 5.3 µg/mL (≈ 22.8 µM)

C=C[C@]1(C)C[C@@H]2OC(=O)C(C)=C2C[C@H]1C(=C)C [ISOGERMAFURENOLIDE]
IC50: 4.5 µg/mL (≈ 19.4 µM)

C=C(C)[C@@H]1CC[C@]2(C)CC[C@]3(C)[C@H](CC[C@@H]4[C@@]5(C)CC[C@H](OC(C)=O)C(C)(C)[C@@H]5CC[C@]43C)[C@@H]12 [LUPENYL ACETATE]
IC50: 22.6 µg/mL

C=C(C)[C@@H]1CC[C@]2(C)CC[C@]3(C)[C@H](CC[C@@H]4[C@@]5(C)CC[C@H](O)C(C)(C)[C@@H]5CC[C@]43C)[C@@H]12 [LUPEOL]
IC50: 26.4 µg/mL (≈ 61.9 µM)

CC1(C)CC[C@]2(C)CC=C3[C@]4(C)CC[C@H]5C(C)(C)[C@@H](O)CC[C@]5(C)[C@H]4CC[C@@]3(C)[C@@H]2C1 [TARAXEROL]
IC50: 21.8 µg/mL (≈ 51.1 µM)
